Where a name gives a salt, the structure may show the parent alone.
Experiments:
Type in all cases: in vivo, rabbit
[1] = test system: REC1_1 (MspI AAGC 288) mRNA, TYRO protein tyrosine kinase binding p; test: TOGA analysis, REC1_1
Description: (§1) To perform the studies, New Zealand male rabbits weighing 2.0-2.5 kg (Charles River, Calco, Italy) were used. The rabbits were divided into three groups and maintained in identical experimental conditions: (1) control group (n=15); rabbits fed a cholesterol-rich diet; (2) lercanidipine-treated group (n=15); rabbits fed a cholesterol-rich diet and also treated with lercanidipine (3 mg/kg/week); and (3) (R)-lercanidipine-treated group (n=5); rabbits fed a cholesterol-rich diet and also treated with the (R)-enantiomer of lercanidipine (3 mg/kg/week). After a 2 week period of subcutaneous, once a week, pretreatment with 3 mg/kg/week of lercanidipine or (R)-lercanidipine, the rabbits received a daily cholesterol supplement for up to 8 weeks or 2 weeks, respectively. In the following examples, use of the term “lercanidipine” refers to the racemic mixture of lercanidipine hydrochloride, whereas “(R)-lercanidipine” refers to the (R)-enantiomer of lercanidipine hydrochloride.
(§2) The mRNA from the above-described groups was isolated from aorta at different time points, resulting in the following mRNA samples: (1) Day 0 Control=no administered cholesterol, no lercanidipine; (2) Day 0+lercanidipine=no administered cholesterol, treatment with lercanipidine (2 weeks; 3 mg/kg/week); (3) Day 14 Control=cholesterol diet for two weeks, no lercanidipine; (4) Day 14+lercanidipine=cholesterol diet for two weeks, treatment with lercanidipine (four weeks; 3 mg/kg/week); (5) Week 8 Control=cholesterol diet for 8 weeks, no lercanidipine; and (6) Week 8+lercanidipine=cholesterol diet for 8 weeks, treatment with lercanidipine (10 weeks; 3 mg/kg/week). In addition, Day 14+(R)-lercanidipine mRNA samples were prepared from rabbits given a cholesterol diet for two weeks and treated with 3 mg/kg/week (R)-lercanidipine for four weeks.
(§3) Aorta mRNAs were prepared in the following manner. First, the aortas from each experimental group were retrieved and shredded using a polytron homogenizer. The samples were further homogenized using a teflon pestle, after which the cellular debris, nuclei, and blood cells were pelleted by centrifugation. The supernatants were extracted twice with phenol-chloroform-isoamyl alcohol and once with chloroform-isoamyl alcohol. RNA was then precipitated from the aqueous phase with ethanol. The poly A+ mRNA was prepared using standard methods of polyA selection known in the art (Schriber et al., J. Mol. Biol., 142:93-116 (1980)).
(§4) The isolated mRNA was analyzed using a method of simultaneous sequence-specific identification of mRNAs known as TOGA, described in U.S. Pat. No. 5,459,037 and U.S. Pat. No. 5,807,680, hereby incorporated herein by reference. In a preferred embodiment, the TOGA method further comprised an additional PCR step performed using a mixture of four 5′ PCR primers and cDNA templates prepared from a population of antisense cRNAs. A final PCR step that used a mixture of 256 5′ PCR primers produced PCR products that were cDNA fragments that corresponded to the 3′-region of the starting mRNA population. The produced PCR products were then identified by: (a) the initial 5′ sequence comprising the sequence remainder of the recognition site of the restriction endonuclease used to cut and isolate the 3′ region plus the sequence of the preferably four parsing bases immediately 3′ to the remainder of the recognition site, preferably the sequence of the entire fragment; and (b) the length of the fragment. These two parameters, sequence and fragment length, were used to compare the obtained PCR products to a database of known polynucleotide sequences. Since the length of the obtained PCR products includes known vector sequences at the 5′ and 3′ ends of the insert, the sequence of the insert provided in the sequence listing is shorter than the fragment length that forms part of the digital address.
(§5) The method yields Digital Sequence Tags (DSTs), that is, polynucleotides that are expressed sequence tags of the 3′ end of mRNAs. […]

[2] = test system: REC1_13 (MspI GCCC 216) mRNA; test: TOGA analysis, REC1_13
Description: as §1, §2, §3
as §4, with “These two parameters, sequence and fragment length, were used to compare the obtained PCR products to a database of known polynucleotide sequences. Since the length of the obtained PCR products includes known vector sequences at the 5′ and 3′ ends of the insert, the sequence of the insert provided in the sequence listing is shorter than the fragment length that forms part of the digital address.” left out

[3] = test system: REC1_7 (MspI CACA 282) mRNA; test: TOGA analysis, REC1_7
Description: as §1, §2, §3, §4, §5

REC1_19 (TGTT 393) mRNA = test: TOGA analysis, REC1_19
Description: as §1, §2, §3
as §4, with “These two parameters, sequence and fragment length, were used to compare the obtained PCR products to a database of known polynucleotide sequences. Since the length of the obtained PCR products includes known vector sequences at the 5′ and 3′ ends of the insert, the sequence of the insert provided in the sequence listing is shorter than the fragment length that forms part of the digital address.” left out

[4] = test system: REC1_12 (GCCC 232) mRNA, alpha smooth muscle actin; test: TOGA analysis, REC1_12
Description: as §1, §2, §3
as §4, with “These two parameters, sequence and fragment length, were used to compare the obtained PCR products to a database of known polynucleotide sequences. Since the length of the obtained PCR products includes known vector sequences at the 5′ and 3′ ends of the insert, the sequence of the insert provided in the sequence listing is shorter than the fragment length that forms part of the digital address.” left out

[5] = test system: REC1_22 (digital address TGGG 164) mRNA; test: TOGA analysis, REC1_22
Description: as §1, §2, §3, §4, §5

[6] = test system: REC1_24 (digital address CCGG 232) mRNA; test: TOGA analysis, REC1_24
Description: as §1, §2, §3, §4, §5

[7] = test system: REC1_28 (digital address CGGT 101) mRNA, calgizzarin; test: TOGA analysis, REC1_28
Description: as §1, §2, §3, §4, §5

[8] = test system: REC1_31 (digital address TGCA 210) mRNA, mitochondrial genome; test: TOGA analysis, REC1_31
Description: as §1, §2, §3, §4, §5

[9] = test system: REC1_33 (digital address CCGA 96) mRNA, as1_casein gene; test: TOGA analysis, REC1_33
Description: as §1, §2, §3, §4, §5

[10] = test system: REC1_34 (digital address CGGT 209) mRNA; test: TOGA analysis, REC1_34
Description: as §1, §2, §3, §4, §5

[11] = test system: REC1_37 (digital address TTCA 264) mRNA, ribosomal protein L15; test: TOGA analysis, REC1_37
Description: as §1, §2, §3, §4, §5

[12] = TOGA, hypercholesterolemic plus lercanidipine racemate, eight weeks, H2 (normocholesterolemic)=1.0
[13] = aorta at day 0: no cholesterol, 3 mg/kg/week for 2 weeks
[14] = aorta at day 14 of cholesterol administration, 3 mg/kg/week for 4 weeks
[15] = aorta at day 14 of cholesterol diet, 3 mg/kg/week for 4 weeks
[16] = aorta at day 14 of cholesterol, 3 mg/kg/week for 4 weeks

COC(=O)C1=C(C)NC(C)=C(C(=O)OC(C)(C)CN(C)CCC(c2ccccc2)c2ccccc2)C1c1cccc([N+](=O)[O-])c1 (racemic) [lercanidipine, lercanidipine hydrochloride]
level of gene expression (TOGA), 8 Week hypercholesterol + Lercanidipine ([1]; REC1_1, AAGC 288, rabbit aorta, 8 weeks cholesterol + lercanidipine): 1733 | level of gene expression (TOGA), 14 Day hypercholesterol + Lercanidipine ([1]; REC1_1, AAGC 288, rabbit aorta, 14 days cholesterol + lercanidipine): 753 | level of gene expression (TOGA), Normal + Lercanidipine ([1]; REC1_1, AAGC 288, rabbit aorta, no cholesterol, lercanidipine): 215 | Relative Abundance Rec1_1, TOGA, F [1, 12]: 6.9 | level of gene expression of REC1_1 (TOGA) ([1]; aorta at 8 weeks of cholesterol administration, 3 mg/kg/week for 10 weeks): 1733 | level of gene expression of REC1_1 (TOGA) [1, 13]: 215 | level of gene expression of REC1_1 (TOGA) ([1]; aorta at day 14 of cholesterol treatment, 3 mg/kg/week for 4 weeks): 753 | level of gene expression, 8 Week hypercholesterol + Lercanidipine ([2]; REC1_13 GCCC 216, rabbit aorta, 8 weeks cholesterol): 4186 | level of gene expression, 14 Day hypercholesterol + Lercanidipine ([2]; REC1_13 GCCC 216, rabbit aorta, 14 days cholesterol): 542 | level of gene expression, Normal + Lercanidipine ([2]; REC1_13 GCCC 216, rabbit aorta, no cholesterol): 575 | Relative Abundance Rec1_13, TOGA, F [2, 12]: 5.9 | level of gene expression (TOGA), 8 Week hypercholesterol + Lercanidipine ([3]; REC1_7, CACA 282, rabbit aorta, 8 weeks cholesterol + lercanidipine): 159 | level of gene expression (TOGA), 14 Day hypercholesterol + Lercanidipine ([3]; REC1_7, CACA 282, rabbit aorta, 14 days cholesterol + lercanidipine): 417 | level of gene expression (TOGA), Normal + Lercanidipine ([3]; REC1_7, CACA 282, rabbit aorta, no cholesterol, lercanidipine): 863 | Relative Abundance Rec1_7, TOGA, F [3, 12]: 0.2 | level of gene expression of REC1_7 (TOGA) [3, 13]: 863 | level of gene expression of REC1_7 (TOGA) [3, 14]: 417 | level of gene expression of REC1_7 (TOGA) ([3]; aorta at week 8 of cholesterol administration, 3 mg/kg/week for 10 weeks): 159 | level of gene expression, 8 Week hypercholesterol + Lercanidipine (REC1_19 (TGTT 393) mRNA; REC1_19 TGTT 393, rabbit aorta, cholesterol 8 weeks): 130 | level of gene expression, 14 Day hypercholesterol + Lercanidipine (REC1_19 (TGTT 393) mRNA; REC1_19 TGTT 393, rabbit aorta, cholesterol 14 days): 373 | level of gene expression, Normal + Lercanidipine (REC1_19 (TGTT 393) mRNA; REC1_19 TGTT 393, rabbit aorta, no cholesterol): 569 | Relative Abundance Rec1_19, TOGA, F (REC1_19 (TGTT 393) mRNA; [12]): 0.2 | level of gene expression, 8 Week hypercholesterol + Lercanidipine ([4]; REC1_12 GCCC 232, rabbit aorta, 8 weeks cholesterol): 622 | level of gene expression, 14 Day hypercholesterol + Lercanidipine ([4]; REC1_12 GCCC 232, rabbit aorta, 14 days cholesterol): 5657 | level of gene expression, Normal + Lercanidipine ([4]; REC1_12 GCCC 232, rabbit aorta, no cholesterol): 4929 | Relative Abundance Rec1_12, TOGA, F [4, 12]: 0.1 | level of gene expression, 8 Week hypercholesterol + Lercanidipine ([5]; REC1_22 TGGG 164, rabbit aorta, cholesterol 8 weeks): 122 | level of gene expression, 14 Day hypercholesterol + Lercanidipine ([5]; REC1_22 TGGG 164, rabbit aorta, cholesterol 14 days): 194 | level of gene expression, Normal + Lercanidipine ([5]; REC1_22 TGGG 164, rabbit aorta, no cholesterol): 87 | level of gene expression of REC1_22 (TOGA) [5, 13]: 87 | level of gene expression of REC1_22 (TOGA) [5, 14]: 194 | level of gene expression, 8 Week hypercholesterol + Lercanidipine ([6]; REC1_24 CCGG 232, rabbit aorta, 8 weeks cholesterol): 117 | level of gene expression, 14 Day hypercholesterol + Lercanidipine ([6]; REC1_24 CCGG 232, rabbit aorta, 14 days cholesterol): 104 | level of gene expression, Normal + Lercanidipine ([6]; REC1_24 CCGG 232, rabbit aorta, no cholesterol): 122 | level of gene expression of REC1_24 (TOGA) [6, 13]: 122 | level of gene expression of REC1_24 (TOGA) [6, 15]: 104 | level of gene expression, 8 Week hypercholesterol + Lercanidipine ([7]; REC1_28 CGGT 101, rabbit aorta, 8 weeks cholesterol): 176 | level of gene expression, 14 Day hypercholesterol + Lercanidipine ([7]; REC1_28 CGGT 101, rabbit aorta, 14 days cholesterol): 189 | level of gene expression, Normal + Lercanidipine ([7]; REC1_28 CGGT 101, rabbit aorta, no cholesterol): 229 | level of gene expression of REC1_28 (TOGA) [7, 13]: 229 | level of gene expression of REC1_28 (TOGA) [7, 15]: 189 | level of gene expression, 8 Week hypercholesterol + Lercanidipine ([8]; REC1_31 TGCA 210, rabbit aorta, cholesterol 8 weeks): 245 | level of gene expression, 14 Day hypercholesterol + Lercanidipine ([8]; REC1_31 TGCA 210, rabbit aorta, cholesterol 14 days): 619 | level of gene expression, Normal + Lercanidipine ([8]; REC1_31 TGCA 210, rabbit aorta, no cholesterol): 464 | level of gene expression of REC1_31 (TOGA) [8, 13]: 464 | level of gene expression of REC1_31 (TOGA) [8, 14]: 619 | level of gene expression, 8 Week hypercholesterol + Lercanidipine ([9]; REC1_33 CCGA 96, rabbit aorta, 8 weeks cholesterol): 156 | level of gene expression, 14 Day hypercholesterol + Lercanidipine ([9]; REC1_33 CCGA 96, rabbit aorta, 14 days cholesterol): 842 | level of gene expression, Normal + Lercanidipine ([9]; REC1_33 CCGA 96, rabbit aorta, no cholesterol): 1094 | level of gene expression of REC1_33 (TOGA) [9, 13]: 1094 | level of gene expression of REC1_33 (TOGA) [9, 14]: 842 | level of gene expression, 8 Week hypercholesterol + Lercanidipine ([10]; REC1_34 CGGT 209, rabbit aorta, 8 weeks cholesterol): 203 | level of gene expression, 14 Day hypercholesterol + Lercanidipine ([10]; REC1_34 CGGT 209, rabbit aorta, 14 days cholesterol): 331 | level of gene expression, Normal + Lercanidipine ([10]; REC1_34 CGGT 209, rabbit aorta, no cholesterol): 100 | level of gene expression of REC1_34 (TOGA) [10, 13]: 100 | level of gene expression of REC1_34 (TOGA) [10, 16]: 331 | level of gene expression, 8 Week hypercholesterol + Lercanidipine ([11]; REC1_37 TTCA 264, rabbit aorta, cholesterol 8 weeks): 136 | level of gene expression, 14 Day hypercholesterol + Lercanidipine ([11]; REC1_37 TTCA 264, rabbit aorta, cholesterol 14 days): 915 | level of gene expression, Normal + Lercanidipine ([11]; REC1_37 TTCA 264, rabbit aorta, no cholesterol): 605 | level of gene expression of REC1_37 (TOGA) [11, 16]: 915 | level of gene expression of REC1_37 (TOGA) ([11]; aorta at week 8 of cholesterol, 3 mg/kg/week for 10 weeks): 136

Source: US20030215817A1, “Modulation of gene expression in formation of fatty atherosclerotic lesions” (priority 2003, published 2003)
